This passage reports IC50 results from patent US10806785B2, “Immunomodulator compounds and methods of use” (Incyte Corporation, priority 2016, dated 2020).

Broadly, the IC50 is the concentration that gives 50% inhibition.

Chain of PD-1/PD-L1 (Q9NZQ7 19-238): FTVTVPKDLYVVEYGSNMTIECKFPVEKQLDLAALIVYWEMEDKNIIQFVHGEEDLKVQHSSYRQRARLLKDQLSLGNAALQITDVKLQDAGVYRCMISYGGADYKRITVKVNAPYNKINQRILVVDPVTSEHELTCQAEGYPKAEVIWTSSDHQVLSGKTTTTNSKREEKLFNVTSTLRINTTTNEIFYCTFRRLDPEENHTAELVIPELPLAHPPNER

The target in this assay is PD-1/PD-L1 (Homo sapiens (Human), UniProt Q9NZQ7). Nature of the assay: PD-1/PD-L1 binding assay (HTRF). Put shortly:
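Fc-tagged human PD-1 (25-167) and His-tagged PD-L1 (19-238), listed as […] and 10 nM final, preincubated 40 min with inhibitors in PBS pH 7.4, 0.05% Tween-20, 0.1% BSA, 1% DMSO, 25 °C. Eu anti-IgG/APC anti-His added, 60 min, 665/620 nm HTRF ratio; IC50 fitted from percent control activity.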
(TR-FRET usually uses a lanthanide donor and a delayed reading to cut background.)
For `C[C@H](O)CN1CCc2c(nc(C(=O)Nc3cccc(-c4cccc(NC(=O)c5nc6c(n5C)CCN(C[C@H]5CC[C@H](C(=O)O)CC5)C6)c4Cl)c3Cl)n2C)C1` [Example 66, trans-4-((2-((2,2′-dichloro-3′-(5-((S)-2-hydroxypropyl)-1-methyl-4,5,6,7-tetrahydro-1H-imidazo[4,5-c]pyridine-2-carboxamido)-[1,1′-biphenyl]-3-yl)carbamoyl)-1-methyl-1,4,6,7-tetrahydro-5H-imidazo[4,5-c]pyridin-5-yl)methyl)cyclohexane-1-carboxylic acid], the IC50 is not above 10 nM.

Regarding `C[C@@H](O)CN1CCc2c(nc(C(=O)Nc3cccc(-c4cccc(NC(=O)c5nc6c(n5C)CCN(C[C@H]5CC[C@H](C(=O)O)CC5)C6)c4Cl)c3Cl)n2C)C1` [Example 67, trans-4-((2-((2,2′-dichloro-3′-(5-((R)-2-hydroxypropyl)-1-methyl-4,5,6,7-tetrahydro-1H-imidazo[4,5-c]pyridine-2-carboxamido)-[1,1′-biphenyl]-3-yl)carbamoyl)-1-methyl-1,4,6,7-tetrahydro-5H-imidazo[4,5-c]pyridin-5-yl)methyl)cyclohexane-1-carboxylic acid], the IC50 was not above 10 nM.

`Cn1c(C(=O)Nc2cccc(-c3cccc(NC(=O)c4nc5c(n4C)CCN(C[C@H]4CC[C@@H](C(=O)O)CC4)C5)c3Cl)c2Cl)nc2c1CCNC2` [Example 68, cis-4-((2-((2,2′-dichloro-3′-(1-methyl-4,5,6,7-tetrahydro-1H-imidazo[4,5-c]pyridine-2-carboxamido)-[1,1′-biphenyl]-3-yl)carbamoyl)-1-methyl-1,4,6,7-tetrahydro-5H-imidazo[4,5-c]pyridin-5-yl)methyl)cyclohexane-1-carboxylic acid]: the IC50 was not above 10 nM.

In the case of `CN1CCc2c(nc(C(=O)Nc3cccc(-c4cccc(NC(=O)c5nc6c(n5C)CCN(C[C@H]5CC[C@@H](C(=O)O)CC5)C6)c4Cl)c3Cl)n2C)C1` [Example 69, cis-4-((2-((2,2′-dichloro-3′-(1,5-dimethyl-4,5,6,7-tetrahydro-1H-imidazo[4,5-c]pyridine-2-carboxamido)-[1,1′-biphenyl]-3-yl)carbamoyl)-1-methyl-1,4,6,7-tetrahydro-5H-imidazo[4,5-c]pyridin-5-yl)methyl)cyclohexane-1-carboxylic acid], the IC50 was not above 10 nM.

In turn, `CCN1CCc2c(nc(C(=O)Nc3cccc(-c4cccc(NC(=O)c5nc6c(n5C)CCN(C[C@H]5CC[C@@H](C(=O)O)CC5)C6)c4Cl)c3Cl)n2C)C1` [Example 70, cis-4-((2-((2,2′-dichloro-3′-(5-ethyl-1-methyl-4,5,6,7-tetrahydro-1H-imidazo[4,5-c]pyridine-2-carboxamido)-[1,1′-biphenyl]-3-yl)carbamoyl)-1-methyl-1,4,6,7-tetrahydro-5H-imidazo[4,5-c]pyridin-5-yl)methyl)cyclohexane-1-carboxylic acid] came in with an IC50 not above 10 nM.

Compound `Cn1c(C(=O)Nc2cccc(-c3cccc(NC(=O)c4nc5c(n4C)CCN(C[C@H]4CC[C@@H](C(=O)O)CC4)C5)c3Cl)c2Cl)nc2c1CCN(CC1CC1)C2` [Example 71, cis-4-((2-((2,2′-dichloro-3′-(5-(cyclopropylmethyl)-1-methyl-4,5,6,7-tetrahydro-1H-imidazo[4,5-c]pyridine-2-carboxamido)-[1,1′-biphenyl]-3-yl)carbamoyl)-1-methyl-1,4,6,7-tetrahydro-5H-imidazo[4,5-c]pyridin-5-yl)methyl)cyclohexane-1-carboxylic acid] yielded an IC50 not above 10 nM.

In the case of `CC(C)N1CCc2c(nc(C(=O)Nc3cccc(-c4cccc(NC(=O)c5nc6c(n5C)CCN(C[C@H]5CC[C@@H](C(=O)O)CC5)C6)c4Cl)c3Cl)n2C)C1` [Example 72, cis-4-((2-((2,2′-dichloro-3′-(5-isopropyl-1-methyl-4,5,6,7-tetrahydro-1H-imidazo[4,5-c]pyridine-2-carboxamido)-[1,1′-biphenyl]-3-yl)carbamoyl)-1-methyl-1,4,6,7-tetrahydro-5H-imidazo[4,5-c]pyridin-5-yl)methyl)cyclohexane-1-carboxylic acid], the IC50 was not above 10 nM.

With `Cn1c(C(=O)Nc2cccc(-c3cccc(NC(=O)c4nc5c(n4C)CCN(C4CCOCC4)C5)c3Cl)c2Cl)nc2c1CCN(C[C@H]1CC[C@@H](C(=O)O)CC1)C2` [Example 73, cis-4-((2-((2,2′-dichloro-3′-(1-methyl-5-(tetrahydro-2H-pyran-4-yl)-4,5,6,7-tetrahydro-1H-imidazo[4,5-c]pyridine-2-carboxamido)-[1,1′-biphenyl]-3-yl)carbamoyl)-1-methyl-1,4,6,7-tetrahydro-5H-imidazo[4,5-c]pyridin-5-yl)methyl)cyclohexane-1-carboxylic acid], the IC50 is not above 10 nM.

`Cn1c(C(=O)Nc2cccc(-c3cccc(NC(=O)c4nc5c(n4C)CCN(C[C@H]4CC[C@@H](C(=O)O)CC4)C5)c3Cl)c2Cl)nc2c1CCN(CCO)C2` [Example 74, cis-4-((2-((2,2′-dichloro-3′-(5-(2-hydroxyethyl)-1-methyl-4,5,6,7-tetrahydro-1H-imidazo[4,5-c]pyridine-2-carboxamido)-[1,1′-biphenyl]-3-yl)carbamoyl)-1-methyl-1,4,6,7-tetrahydro-5H-imidazo[4,5-c]pyridin-5-yl)methyl)cyclohexane-1-carboxylic acid] registered an IC50 not above 10 nM.

Consider `C[C@H](O)CN1CCc2c(nc(C(=O)Nc3cccc(-c4cccc(NC(=O)c5nc6c(n5C)CCN(C[C@H]5CC[C@@H](C(=O)O)CC5)C6)c4Cl)c3Cl)n2C)C1` [Example 75, cis-4-((2-((2,2′-dichloro-3′-(5-((S)-2-hydroxypropyl)-1-methyl-4,5,6,7-tetrahydro-1H-imidazo[4,5-c]pyridine-2-carboxamido)-[1,1′-biphenyl]-3-yl)carbamoyl)-1-methyl-1,4,6,7-tetrahydro-5H-imidazo[4,5-c]pyridin-5-yl)methyl)cyclohexane-1-carboxylic acid], for which the IC50 is not above 10 nM.

As to `C[C@@H](O)CN1CCc2c(nc(C(=O)Nc3cccc(-c4cccc(NC(=O)c5nc6c(n5C)CCN(C[C@H]5CC[C@@H](C(=O)O)CC5)C6)c4Cl)c3Cl)n2C)C1` [Example 76, cis-4-((2-((2,2′-dichloro-3′-(5-((R)-2-hydroxypropyl)-1-methyl-4,5,6,7-tetrahydro-1H-imidazo[4,5-c]pyridine-2-carboxamido)-[1,1′-biphenyl]-3-yl)carbamoyl)-1-methyl-1,4,6,7-tetrahydro-5H-imidazo[4,5-c]pyridin-5-yl)methyl)cyclohexane-1-carboxylic acid], the IC50 was not above 10 nM.

For `CN1CCc2c(nc(C(=O)Nc3cccc(-c4cccc(NC(=O)c5nc6c(n5C)CCN(CCc5ccc(C(=O)O)cc5)C6)c4Cl)c3Cl)n2C)C1` [Example 78, 4-(2-(2-((2,2′-dichloro-3′-(1,5-dimethyl-4,5,6,7-tetrahydro-1H-imidazo[4,5-c]pyridine-2-carboxamido)-[1,1′-biphenyl]-3-yl)carbamoyl)-1-methyl-1,4,6,7-tetrahydro-5H-imidazo[4,5-c]pyridin-5-yl)ethyl)benzoic acid], the IC50 was not above 10 nM.

The compound `CN1CCc2c(nc(C(=O)Nc3cccc(-c4cccc(NC(=O)c5nc6c(n5C)CCN(C5CCC(C(=O)O)CC5)C6)c4Cl)c3Cl)n2C)C1` (centres unmarked) [Example 79, 4-(2-((2,2′-dichloro-3′-(1,5-dimethyl-4,5,6,7-tetrahydro-1H-imidazo[4,5-c]pyridine-2-carboxamido)-[1,1′-biphenyl]-3-yl)carbamoyl)-1-methyl-1,4,6,7-tetrahydro-5H-imidazo[4,5-c]pyridin-5-yl)cyclohexane-1-carboxylic acid] registered an IC50 not above 10 nM.

`CN1CCc2c(nc(C(=O)Nc3cccc(-c4cccc(NC(=O)c5nc6c(n5C)CCN(C5CCC(C)(C(=O)O)CC5)C6)c4Cl)c3Cl)n2C)C1` (centres unmarked) [Example 80, 4-(2-((2,2′-dichloro-3′-(1,5-dimethyl-4,5,6,7-tetrahydro-1H-imidazo[4,5-c]pyridine-2-carboxamido)-[1,1′-biphenyl]-3-yl)carbamoyl)-1-methyl-1,4,6,7-tetrahydro-5H-imidazo[4,5-c]pyridin-5-yl)-1-methylcyclohexane-1-carboxylic acid] displayed an IC50 not above 10 nM.

In turn, `CN1CCc2c(nc(C(=O)Nc3cccc(-c4cccc(NC(=O)c5nc6c(n5C)CCN(CC57CCC(C(=O)O)(CC5)CC7)C6)c4Cl)c3Cl)n2C)C1` [Example 81, 4-((2-((2,2′-dichloro-3′-(1,5-dimethyl-4,5,6,7-tetrahydro-1H-imidazo[4,5-c]pyridine-2-carboxamido)-[1,1′-biphenyl]-3-yl)carbamoyl)-1-methyl-1,4,6,7-tetrahydro-5H-imidazo[4,5-c]pyridin-5-yl)methyl)bicyclo[2.2.2]octane-1-carboxylic acid] yielded a concentration for half-maximal inhibition (IC50) not above 10 nM.

Consider `CCC1(C(=O)O)CCC(N2CCc3c(nc(C(=O)Nc4cccc(-c5cccc(NC(=O)c6nc7c(n6C)CCN(C)C7)c5Cl)c4Cl)n3C)C2)CC1` (centres unmarked) [Example 83, 4-(2-((2,2′-dichloro-3′-(1,5-dimethyl-4,5,6,7-tetrahydro-1H-imidazo[4,5-c]pyridine-2-carboxamido)-[1,1′-biphenyl]-3-yl)carbamoyl)-1-methyl-1,4,6,7-tetrahydro-5H-imidazo[4,5-c]pyridin-5-yl)-1-ethylcyclohexane-1-carboxylic acid], for which the IC50 is not above 10 nM.

Compound `CN1CCc2c(nc(C(=O)Nc3cccc(-c4cccc(NC(=O)c5nc6c(n5C)CCN(CC57CCC(C(=O)O)(CC5)C7)C6)c4Cl)c3Cl)n2C)C1` [Example 84, 4-((2-((2,2′-dichloro-3′-(1,5-dimethyl-4,5,6,7-tetrahydro-1H-imidazo[4,5-c]pyridine-2-carboxamido)-[1,1′-biphenyl]-3-yl)carbamoyl)-1-methyl-1,4,6,7-tetrahydro-5H-imidazo[4,5-c]pyridin-5-yl)methyl)bicyclo[2.2.1]heptane-1-carboxylic acid] came in with an IC50 not above 10 nM.
